Measurements: paper PMC5218480 (PLoS ONE, 2017)

System: MV-4-11 cells
Assay: Gene expression microarray analysis (Affymetrix PrimeView) and GSEA
Type: cell-based, human
Design: RFU PODN (11730768_x_at) / Fold change /veh PODN (11730768_x_at) / RFU LINC00158 (11744669_a_at) / Fold change /veh LINC00158 (11744669_a_at) / RFU DUSP10 (11751237_a_at) / Fold change /veh DUSP10 (11751237_a_at) / RFU ID3 (11757404_x_at) / Fold change /veh ID3 (11757404_x_at) / RFU PLEKHG5 (11737974_s_at) / Fold change /veh PLEKHG5 (11737974_s_at) / RFU LRRC4B (11730491_at) / Fold change /veh LRRC4B (11730491_at) / RFU GIMAP4 (11747438_a_at) / Fold change /veh GIMAP4 (11747438_a_at) / RFU KRT8 (11758183_x_at) / Fold change /veh KRT8 (11758183_x_at) / RFU CNN1 (11734310_a_at) / Fold change /veh CNN1 (11734310_a_at) / RFU VPS37D (11726825_at) / Fold change /veh VPS37D (11726825_at) / RFU C10orf10 (11716522_x_at) / Fold change /veh C10orf10 (11716522_x_at) / RFU KIR2DL2 /// KIR2DL4 /// KIR2DL5A /// KIR2DL5B /// KIR2DS1 /// KIR2DS2 /// KIR2DS3 /// KIR2DS4 /// KIR3DL3 /// KIR3DL3 /// KIR3DS1 (11738374_at) / Fold change /veh KIR2DL2 /// KIR2DL4 /// KIR2DL5A /// KIR2DL5B /// KIR2DS1 /// KIR2DS2 /// KIR2DS3 /// KIR2DS4 /// KIR3DL3 /// KIR3DL3 /// KIR3DS1 (11738374_at) / RFU C1QL1 (11718748_at) / Fold change /veh C1QL1 (11718748_at) / RFU TMPRSS4 (11747572_a_at) / Fold change /veh TMPRSS4 (11747572_a_at) / RFU HAMP (11756126_x_at) / Fold change /veh HAMP (11756126_x_at) / RFU RNFT2 (11725882_a_at) / Fold change /veh RNFT2 (11725882_a_at) / RFU NR4A2 (11747474_a_at) / Fold change /veh NR4A2 (11747474_a_at) / RFU ABCC12 (11746883_a_at) / Fold change /veh ABCC12 (11746883_a_at) / RFU TMEM136 (11760407_x_at) / Fold change /veh TMEM136 (11760407_x_at) / RFU CLDN22 /// WWC2 (11732394_at) / Fold change /veh CLDN22 /// WWC2 (11732394_at) / RFU HLA-DPB1 (11760878_x_at) / Fold change /veh HLA-DPB1 (11760878_x_at) / RFU SPINT1 (11716480_a_at) / Fold change /veh SPINT1 (11716480_a_at) / RFU GAP43 (11754022_s_at) / Fold change /veh GAP43 (11754022_s_at) / RFU A4GNT (11735810_at) / Fold change /veh A4GNT (11735810_at) / RFU PRB3 (11715151_x_at) / Fold change /veh PRB3 (11715151_x_at) / RFU TUBB4B (11761932_at) / Fold change /veh TUBB4B (11761932_at) / RFU CAPN14 (11732068_a_at) / Fold change /veh CAPN14 (11732068_a_at) / RFU TMCC2 (11721928_a_at) / Fold change /veh TMCC2 (11721928_a_at) / RFU IRGQ (11745062_a_at) / Fold change /veh IRGQ (11745062_a_at) / RFU FAM174B (11720279_a_at) / Fold change /veh FAM174B (11720279_a_at) / RFU TMPRSS4 (11748680_a_at) / Fold change /veh TMPRSS4 (11748680_a_at) / RFU FAM212B (11763350_a_at) / Fold change /veh FAM212B (11763350_a_at) / RFU PLEKHG5 (11743358_a_at) / Fold change /veh PLEKHG5 (11743358_a_at) / RFU ZSCAN30 (11745921_a_at) / Fold change /veh ZSCAN30 (11745921_a_at) / RFU CMKLR1 (11741424_a_at) / Fold change /veh CMKLR1 (11741424_a_at) / RFU LOC101060620 /// MAPK8IP1 (11723275_at) / Fold change /veh LOC101060620 /// MAPK8IP1 (11723275_at) / RFU SPTSSB (11747773_x_at) / Fold change /veh SPTSSB (11747773_x_at) / RFU PRSS12 (11739890_at) / Fold change /veh PRSS12 (11739890_at) / RFU BIN1 (11741810_x_at) / Fold change /veh BIN1 (11741810_x_at) / RFU WNT11 (11732464_a_at) / Fold change /veh WNT11 (11732464_a_at) / RFU C10orf10 (11716521_a_at) / Fold change /veh C10orf10 (11716521_a_at) / RFU C5orf56 (11738089_at) / Fold change /veh C5orf56 (11738089_at) / RFU CYB561 (11721691_x_at) / Fold change /veh CYB561 (11721691_x_at) / RFU ANKRD19P (11752326_a_at) / Fold change /veh ANKRD19P (11752326_a_at) / RFU OR2T12 /// OR2T33 /// OR2T8 (11738714_s_at) / Fold change /veh OR2T12 /// OR2T33 /// OR2T8 (11738714_s_at) / RFU VCAN (11748164_a_at) / Fold change /veh VCAN (11748164_a_at) / RFU JSRP1 (11732532_at) / Fold change /veh JSRP1 (11732532_at) / RFU KRTAP10-11 (11738290_x_at) / Fold change /veh KRTAP10-11 (11738290_x_at) / RFU MYO3A (11730013_a_at) / Fold change /veh MYO3A (11730013_a_at) / RFU EBF3 (11725865_a_at) / Fold change /veh EBF3 (11725865_a_at) / RFU CAMK2N1 (11719241_x_at) / Fold change /veh CAMK2N1 (11719241_x_at) / RFU C5orf56 (11738088_a_at) / Fold change /veh C5orf56 (11738088_a_at) / RFU OLFML3 (11715873_a_at) / Fold change /veh OLFML3 (11715873_a_at) / RFU LOC100653217 /// NTM (11731650_a_at) / Fold change /veh LOC100653217 /// NTM (11731650_a_at) / RFU MAPK11 (11762145_a_at) / Fold change /veh MAPK11 (11762145_a_at) / RFU FIZ1 (11724087_x_at) / Fold change /veh FIZ1 (11724087_x_at) / RFU OASL (11726364_x_at) / Fold change /veh OASL (11726364_x_at) / RFU SOX15 (11748057_x_at) / Fold change /veh SOX15 (11748057_x_at) / RFU CD79A (11719716_a_at) / Fold change /veh CD79A (11719716_a_at) / RFU HIST1H1D (11736915_at) / Fold change /veh HIST1H1D (11736915_at) / RFU CASKIN2 (11723855_a_at) / Fold change /veh CASKIN2 (11723855_a_at) / RFU LOC730098 (11760151_x_at) / Fold change /veh LOC730098 (11760151_x_at) / RFU OR4N2 (11742367_at) / Fold change /veh OR4N2 (11742367_at) / RFU PRRT2 (11749266_a_at) / Fold change /veh PRRT2 (11749266_a_at) / RFU SNX32 (11753110_a_at) / Fold change /veh SNX32 (11753110_a_at) / RFU CDHR5 (11726645_a_at) / Fold change /veh CDHR5 (11726645_a_at) / RFU RCAN1 (11760418_a_at) / Fold change /veh RCAN1 (11760418_a_at) / RFU FAM167A (11723789_a_at) / Fold change /veh FAM167A (11723789_a_at) / RFU FAM26E (11764081_at) / Fold change /veh FAM26E (11764081_at) / RFU ISYNA1 (11749810_s_at) / Fold change /veh ISYNA1 (11749810_s_at) / RFU ACY1 (11761880_at) / Fold change /veh ACY1 (11761880_at) / RFU 11764098_at / Fold change /veh 11764098_at / RFU SAMD14 (11745864_x_at) / Fold change /veh SAMD14 (11745864_x_at) / RFU NPB (11741838_a_at) / Fold change /veh NPB (11741838_a_at) / RFU TMPRSS6 (11731388_a_at) / Fold change /veh TMPRSS6 (11731388_a_at) / RFU KRTAP10-2 (11738614_at) / Fold change /veh KRTAP10-2 (11738614_at) / RFU ARHGAP8 /// PRR5-ARHGAP8 (11727945_x_at) / Fold change /veh ARHGAP8 /// PRR5-ARHGAP8 (11727945_x_at) / RFU KRTAP5-7 /// NADSYN1 (11734609_at) / Fold change /veh KRTAP5-7 /// NADSYN1 (11734609_at) / RFU RASL12 (11751679_a_at) / Fold change /veh RASL12 (11751679_a_at) / RFU CDKN2B (11736163_a_at) / Fold change /veh CDKN2B (11736163_a_at) / RFU PRF1 (11729649_at) / Fold change /veh PRF1 (11729649_at) / RFU, ZNF638 /// ZNF638-IT1 / Fold change vs veh, ZNF638 /// ZNF638-IT1 / RFU, PANK3 / Fold change vs veh, PANK3 / RFU, SH3YL1 / Fold change vs veh, SH3YL1 / RFU, ZEB2 / Fold change vs veh, ZEB2 / RFU, NRIP1 / Fold change vs veh, NRIP1 / RFU, PTTG1IP / Fold change vs veh, PTTG1IP / RFU, CAPN2 / Fold change vs veh, CAPN2 / RFU, MED14 / Fold change vs veh, MED14 / RFU, SNORA58 / Fold change vs veh, SNORA58 / RFU, C1orf63 / Fold change vs veh, C1orf63 / RFU, LRRFIP1 / Fold change vs veh, LRRFIP1 / RFU, NDUFAF7 / Fold change vs veh, NDUFAF7 / RFU, SLC12A2 / Fold change vs veh, SLC12A2 / RFU, IBTK / Fold change vs veh, IBTK / RFU, ESF1 / Fold change vs veh, ESF1 / Fold change vs veh, TMEM50B / RFU, TAOK1 / Fold change vs veh, TAOK1 / RFU, ACBD3 / Fold change vs veh, ACBD3 / RFU, TMA16 / Fold change vs veh, TMA16 / RFU, RWDD3 / Fold change vs veh, RWDD3 / RFU, BCAT1 / Fold change vs veh, BCAT1 / RFU, EDEM3 / Fold change vs veh, EDEM3 / RFU, TMEM33 / Fold change vs veh, TMEM33 / RFU, WDR75 / Fold change vs veh, WDR75 / RFU, AHCTF1 / Fold change vs veh, AHCTF1 / RFU, TFRC / Fold change vs veh, TFRC / RFU, ZDHHC17 / Fold change vs veh, ZDHHC17 / RFU, NOM1 / Fold change vs veh, NOM1 / RFU, ARL8B / Fold change vs veh, ARL8B / RFU, ZBTB11 / Fold change vs veh, ZBTB11 / RFU, TAMM41 / Fold change vs veh, TAMM41 / RFU, KIAA1704 /// LOC100996395 / Fold change vs veh, KIAA1704 /// LOC100996395 / RFU, ING1 / Fold change vs veh, ING1 / RFU, TRMT61B / Fold change vs veh, TRMT61B / RFU, FUBP3 / Fold change vs veh, FUBP3 / RFU, TP53 / Fold change vs veh, TP53 / RFU, TNKS2 / Fold change vs veh, TNKS2 / RFU, ZFP14 / Fold change vs veh, ZFP14 / RFU, ACTR2 / Fold change vs veh, ACTR2 / RFU, PPP3R1 / Fold change vs veh, PPP3R1 / RFU, PIK3R1 / Fold change vs veh, PIK3R1 / RFU, HNRNPA1 / Fold change vs veh, HNRNPA1 / RFU, RNF170 / Fold change vs veh, RNF170 / RFU, ZNF28 / Fold change vs veh, ZNF28 / RFU, RNGTT / Fold change vs veh, RNGTT / RFU, OGT / Fold change vs veh, OGT / RFU, BRD1 / Fold change vs veh, BRD1 / RFU, MARS / Fold change vs veh, MARS / RFU, ZNF655 / Fold change vs veh, ZNF655 / RFU, FAHD1 / Fold change vs veh, FAHD1 / RFU, BDP1 / Fold change vs veh, BDP1 / RFU, LRRCC1 / Fold change vs veh, LRRCC1 / RFU, ARID1A / Fold change vs veh, ARID1A / RFU, ZNF146 / Fold change vs veh, ZNF146 / RFU, ZNF330 / Fold change vs veh, ZNF330 / RFU, GPN3 / Fold change vs veh, GPN3 / RFU, C9orf123 / Fold change vs veh, C9orf123 / RFU, N4BP2L2 / Fold change vs veh, N4BP2L2 / RFU, ARFIP1 / Fold change vs veh, ARFIP1 / RFU, FAM179B / Fold change vs veh, FAM179B / RFU, BCL10 / Fold change vs veh, BCL10 / RFU, UHRF1BP1L / Fold change vs veh, UHRF1BP1L / RFU, BET1 / Fold change vs veh, BET1 / RFU, CNOT2 / Fold change vs veh, CNOT2 / RFU, ZNF268 / Fold change vs veh, ZNF268 / Fold change vs veh, ZNF507 / RFU, DGCR2 / Fold change vs veh, DGCR2 / RFU, WDSUB1 / Fold change vs veh, WDSUB1 / Fold change vs veh, HSP90B1 /// MIR3652 / RFU, ADSS / Fold change vs veh, ADSS / RFU, GK / Fold change vs veh, GK / RFU, ZNF148 / Fold change vs veh, ZNF148 / RFU, TAF9 / Fold change vs veh, TAF9 / RFU, SLC1A5 / Fold change vs veh, SLC1A5 / RFU, SLMO2 / Fold change vs veh, SLMO2 / RFU, ABCC4 / Fold change vs veh, ABCC4 / RFU, LOC101060439 /// RAP1B / Fold change vs veh, LOC101060439 /// RAP1B / RFU, RFX7 / Fold change vs veh, RFX7 / RFU, GTPBP10 / Fold change vs veh, GTPBP10 / RFU, CNEP1R1 / Fold change vs veh, CNEP1R1 / RFU, BIVM-ERCC5 /// ERCC5 / Fold change vs veh, BIVM-ERCC5 /// ERCC5 / RFU, ILF3 / Fold change vs veh, ILF3 / RFU 11762660_at / Fold change /veh 11762660_at / RFU VCAN (11757783_s_at) / Fold change /veh VCAN (11757783_s_at) / RFU DDX43 (11728927_at) / Fold change /veh DDX43 (11728927_at) / RFU KRT8 (11758188_x_at) / Fold change /veh KRT8 (11758188_x_at) / RFU NKD1 (11759106_at) / Fold change /veh NKD1 (11759106_at) / RFU SRD5A1 (11742802_a_at) / Fold change /veh SRD5A1 (11742802_a_at) / RFU TPSAB1 /// TPSB2 (11721975_s_at) / Fold change /veh TPSAB1 /// TPSB2 (11721975_s_at) / RFU GSTM3 (11746129_a_at) / Fold change /veh GSTM3 (11746129_a_at) / RFU IL23R (11737362_x_at) / Fold change /veh IL23R (11737362_x_at) / RFU TMEM51 (11727254_a_at) / Fold change /veh TMEM51 (11727254_a_at) / RFU PIWIL2 (11732686_x_at) / Fold change /veh PIWIL2 (11732686_x_at) / RFU ORM1 (11744905_x_at) / Fold change /veh ORM1 (11744905_x_at) / RFU CCDC152 (11743942_at) / Fold change /veh CCDC152 (11743942_at) / RFU ECM1 (11717891_a_at) / Fold change /veh ECM1 (11717891_a_at) / RFU IL23R (11748794_a_at) / Fold change /veh IL23R (11748794_a_at) / RFU TNFAIP8L3 (11732012_x_at) / Fold change /veh TNFAIP8L3 (11732012_x_at) / RFU MBOAT4 (11741988_at) / Fold change /veh MBOAT4 (11741988_at) / RFU 11764193_at / Fold change /veh 11764193_at / RFU TMEM53 (11763286_at) / Fold change /veh TMEM53 (11763286_at) / RFU MAGEB2 (11727129_at) / Fold change /veh MAGEB2 (11727129_at) / RFU TMEM200A (11744735_a_at) / Fold change /veh TMEM200A (11744735_a_at) / RFU CCDC152 (11751479_a_at) / Fold change /veh CCDC152 (11751479_a_at) / RFU FAM211A (11726209_a_at) / Fold change /veh FAM211A (11726209_a_at) / RFU RGS16 (11746705_a_at) / Fold change /veh RGS16 (11746705_a_at) / RFU VCAN (11755009_s_at) / Fold change /veh VCAN (11755009_s_at) / RFU RHOB (11743442_s_at) / Fold change /veh RHOB (11743442_s_at) / RFU RGS16 (11720943_a_at) / Fold change /veh RGS16 (11720943_a_at) / RFU RGS16 (11720944_at) / Fold change /veh RGS16 (11720944_at) / RFU, VPS4B / Fold change vs veh, VPS4B / RFU, CREB1 / Fold change vs veh, CREB1 / RFU, DNAJC13 / Fold change vs veh, DNAJC13 / RFU, GNAQ / Fold change vs veh, GNAQ / RFU, CDK5R1 / Fold change vs veh, CDK5R1 / RFU, ZRANB3 / Fold change vs veh, ZRANB3 / RFU, CUL4A / Fold change vs veh, CUL4A / RFU, CCNY / Fold change vs veh, CCNY / RFU, UFL1 / Fold change vs veh, UFL1 / RFU, COG3 / Fold change vs veh, COG3 / RFU, DIAPH2 / Fold change vs veh, DIAPH2 / RFU, SKA2 / Fold change vs veh, SKA2 / RFU, AFF3 / Fold change vs veh, AFF3 / RFU, LMF1 / Fold change vs veh, LMF1 / RFU, IPO11 / Fold change vs veh, IPO11 / RFU, DFFB / Fold change vs veh, DFFB / RFU, FOXP1 / Fold change vs veh, FOXP1 / RFU, CARD8 / Fold change vs veh, CARD8 / RFU, STRN3 / Fold change vs veh, STRN3 / RFU, ADK / Fold change vs veh, ADK / RFU, RASSF2 / Fold change vs veh, RASSF2 / RFU, WIPF1 / Fold change vs veh, WIPF1 / RFU, LARP1B / Fold change vs veh, LARP1B / RFU, RASA1 / Fold change vs veh, RASA1 / RFU, RB1 / Fold change vs veh, RB1 / RFU, PPFIA1 / Fold change vs veh, PPFIA1 / RFU, MAT2A / Fold change vs veh, MAT2A / RFU, CCT5 / Fold change vs veh, CCT5 / RFU, WDR92 / Fold change vs veh, WDR92 / RFU, CUX1 / Fold change vs veh, CUX1 / RFU, TTC7A / Fold change vs veh, TTC7A / RFU, TMEM135 / Fold change vs veh, TMEM135 / RFU, DEPTOR / Fold change vs veh, DEPTOR / RFU, CPM / Fold change vs veh, CPM / RFU, DNAJB6 / Fold change vs veh, DNAJB6 / RFU, CACNA2D3 / Fold change vs veh, CACNA2D3 / RFU, DTX4 / Fold change vs veh, DTX4 / RFU, TFCP2 / Fold change vs veh, TFCP2 / RFU, GMCL1 /// GMCL1P1 / Fold change vs veh, GMCL1 /// GMCL1P1 / RFU, AEBP2 / Fold change vs veh, AEBP2 / RFU, SNHG1 /// SNORD22 /// SNORD25 /// SNORD26 /// SNORD27 /// SNORD28 /// SNORD29 /// SNORD31 / Fold change vs veh, SNHG1 /// SNORD22 /// SNORD25 /// SNORD26 /// SNORD27 /// SNORD28 /// SNORD29 /// SNORD31 / Fold change (Aza/veh), C12orf56 (ProbeSet 11735607_a_at) / Fold change (ACY-1035/veh), C12orf56 (ProbeSet 11735607_a_at) / Fold change (Aza/veh), FGFR1OP (ProbeSet 11751329_s_at) / Fold change (ACY-1035/veh), FGFR1OP (ProbeSet 11751329_s_at) / Fold change (Aza/veh), VPS36 (ProbeSet 11739960_a_at) / Fold change (ACY-1035/veh), VPS36 (ProbeSet 11739960_a_at) / RFU SYPL1 (11715823_x_at) / Fold change /veh SYPL1 (11715823_x_at) / RFU IGFBP7 (11715501_s_at) / Fold change /veh IGFBP7 (11715501_s_at) / RFU REEP3 (11722064_at) / Fold change /veh REEP3 (11722064_at) / RFU IGLL1 (11728026_x_at) / Fold change /veh IGLL1 (11728026_x_at): dose or concentration left out as unconfirmed
Conditions: ProbeSet 11731610_x_at; LIST B

SMILES: Nc1ncn([C@@H]2O[C@H](CO)[C@@H](O)[C@H]2O)c(=O)n1 [azacitidine]
- Fold change vs veh, KIAA1704 /// LOC100996395: 1.05
